In patent publication US20250163043A1 (TRANSTHERA SCIENCES (NANJING), INC., priority 2021, published 2025):

How the values were obtained:
[1] = target: CDK2/CycA2 (Homo sapiens, UniProt P24941); test: ADP-Glo kinase assay on CDK enzymatic activity, CDK2/CycA2; assay type: biochemical; conditions: 10 concentrations from 10 μM, 4-fold, 60 min room temperature
Summary of the method: (§1)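 Enzyme activity was measured by ADP-Glo luminescence following 60 min turnover of CDK tide peptide at room temperature. Compounds spanned ten 4-fold dilutions from 10 μM final, with 0.5% DMSO.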

[2] = target: CDK5/p25NCK (Homo sapiens, UniProt Q00535); test: ADP-Glo kinase assay on CDK enzymatic activity, CDK5/p25NCK; assay type: biochemical; conditions: 10 concentrations from 10 μM, 4-fold, 60 min room temperature
Sequence of CDK5/p25NCK (Q00535 whole entry, species assumed): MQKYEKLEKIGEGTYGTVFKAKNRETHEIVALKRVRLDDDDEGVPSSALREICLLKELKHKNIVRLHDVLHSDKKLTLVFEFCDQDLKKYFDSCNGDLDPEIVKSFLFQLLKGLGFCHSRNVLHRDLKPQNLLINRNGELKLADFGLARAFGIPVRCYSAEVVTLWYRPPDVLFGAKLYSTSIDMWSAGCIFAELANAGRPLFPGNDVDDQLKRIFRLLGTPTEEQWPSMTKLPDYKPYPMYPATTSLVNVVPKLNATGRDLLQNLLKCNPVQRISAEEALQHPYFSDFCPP
Sequence of CDK5/p25NCK (Q15078 99-307 partner limits assumed, species assumed): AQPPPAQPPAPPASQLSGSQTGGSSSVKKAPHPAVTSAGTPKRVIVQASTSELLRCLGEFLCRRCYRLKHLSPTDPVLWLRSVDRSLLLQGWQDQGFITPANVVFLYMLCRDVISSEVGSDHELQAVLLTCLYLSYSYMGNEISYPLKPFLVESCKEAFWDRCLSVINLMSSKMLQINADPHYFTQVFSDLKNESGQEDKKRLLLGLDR
Summary of the method: as §1

[3] = target: CDK9/CycT1 (Homo sapiens, UniProt P50750); test: ADP-Glo kinase assay on CDK enzymatic activity, CDK9/CycT1; assay type: biochemical; conditions: 10 concentrations from 10 μM, 4-fold, 60 min room temperature
Sequence of CDK9/CycT1 (P50750 whole entry): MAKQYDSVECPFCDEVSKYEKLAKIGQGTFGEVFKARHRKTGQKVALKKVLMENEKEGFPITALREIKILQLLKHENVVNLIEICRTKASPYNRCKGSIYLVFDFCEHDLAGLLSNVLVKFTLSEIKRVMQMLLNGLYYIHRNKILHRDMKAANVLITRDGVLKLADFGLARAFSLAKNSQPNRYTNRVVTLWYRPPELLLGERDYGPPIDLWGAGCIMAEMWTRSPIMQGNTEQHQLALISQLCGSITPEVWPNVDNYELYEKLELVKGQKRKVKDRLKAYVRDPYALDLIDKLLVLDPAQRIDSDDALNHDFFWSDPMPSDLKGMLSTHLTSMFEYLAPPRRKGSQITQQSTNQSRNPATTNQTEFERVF
Sequence of CDK9/CycT1 (O60563 whole entry partner): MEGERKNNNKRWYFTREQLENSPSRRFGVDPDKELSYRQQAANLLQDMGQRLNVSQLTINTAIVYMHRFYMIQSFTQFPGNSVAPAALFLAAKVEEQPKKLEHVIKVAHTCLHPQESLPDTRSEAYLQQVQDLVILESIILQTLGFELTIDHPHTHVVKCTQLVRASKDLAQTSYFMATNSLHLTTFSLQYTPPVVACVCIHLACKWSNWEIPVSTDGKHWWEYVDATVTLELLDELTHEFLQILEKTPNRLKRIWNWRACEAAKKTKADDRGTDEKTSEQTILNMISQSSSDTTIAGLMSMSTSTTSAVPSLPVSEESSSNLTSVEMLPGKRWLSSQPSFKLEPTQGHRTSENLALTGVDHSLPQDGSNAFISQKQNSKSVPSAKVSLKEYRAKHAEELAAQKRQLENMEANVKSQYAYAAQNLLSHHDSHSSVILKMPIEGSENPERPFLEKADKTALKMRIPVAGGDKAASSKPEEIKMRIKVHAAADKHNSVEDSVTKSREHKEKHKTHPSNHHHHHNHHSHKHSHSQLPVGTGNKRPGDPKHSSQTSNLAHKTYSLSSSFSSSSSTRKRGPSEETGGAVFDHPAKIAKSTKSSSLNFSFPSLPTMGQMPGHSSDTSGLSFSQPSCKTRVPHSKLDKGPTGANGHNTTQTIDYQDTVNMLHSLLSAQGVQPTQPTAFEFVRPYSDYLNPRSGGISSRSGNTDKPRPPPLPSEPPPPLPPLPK
Summary of the method: as §1

[4] = target: CDK3/CycE1 (Homo sapiens, UniProt Q00526); test: ADP-Glo kinase assay on CDK enzymatic activity, CDK3/CycE1; assay type: biochemical; conditions: 10 concentrations from 10 μM, 4-fold, 60 min room temperature
Sequence of CDK3/CycE1 (Q00526 whole entry, species assumed): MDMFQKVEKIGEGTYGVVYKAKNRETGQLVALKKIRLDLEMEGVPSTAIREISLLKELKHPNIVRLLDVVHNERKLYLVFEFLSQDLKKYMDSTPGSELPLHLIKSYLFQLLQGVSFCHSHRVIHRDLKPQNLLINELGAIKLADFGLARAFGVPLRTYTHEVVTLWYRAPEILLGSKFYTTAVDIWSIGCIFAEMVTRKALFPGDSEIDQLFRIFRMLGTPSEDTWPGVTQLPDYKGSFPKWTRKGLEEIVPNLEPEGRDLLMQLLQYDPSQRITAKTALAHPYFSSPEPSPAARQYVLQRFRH
Sequence of CDK3/CycE1 (P24864 whole entry partner, species assumed): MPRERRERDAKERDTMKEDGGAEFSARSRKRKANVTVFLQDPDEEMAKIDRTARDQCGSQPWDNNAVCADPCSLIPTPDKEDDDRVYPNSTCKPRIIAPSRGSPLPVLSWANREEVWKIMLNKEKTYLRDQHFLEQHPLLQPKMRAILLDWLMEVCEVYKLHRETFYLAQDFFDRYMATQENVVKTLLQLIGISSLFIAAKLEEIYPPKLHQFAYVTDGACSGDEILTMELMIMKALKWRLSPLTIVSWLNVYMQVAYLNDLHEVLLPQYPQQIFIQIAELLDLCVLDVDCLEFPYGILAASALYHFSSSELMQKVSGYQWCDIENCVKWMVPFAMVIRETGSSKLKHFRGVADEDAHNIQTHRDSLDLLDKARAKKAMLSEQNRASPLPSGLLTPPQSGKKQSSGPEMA
Summary of the method: as §1

[5] = test system: NCI-H929 (human myeloma cells); test: CCK-8 cell proliferation assay, NCI-H929; assay type: cell-based; conditions: 72 h incubation, 11 concentrations from 5000 nM, 3-fold
Experimental: Test samples: the compounds of the present invention, having structures shown above.
RMPI 1640, Fetal Bovine Serum (FBS), a CCK-8 method cell proliferation assay kit, DMSO (dimethyl sulfoxide), a 96-well cell culture plate, an Iscov'Modified Dulbecco's culture medium (IMDM), a multifunctional microplate reader,
MV-4-11 (human myelomonocytic leukemia cells) and NCI-H929 (human myeloma cells).
The compounds were dissolved in DMSO and diluted 3-fold in the 96-well plate to obtain stock solutions with 11 concentration gradients. Each cell was inoculated into a 96-well plate, and the diluted compound stock solution was added to the 96-well plate to obtain a series of 11 concentration gradients of compound solutions with final concentrations of 5000 nM starting and 3-fold gradient decreasing, wherein the final DMSO content was […]. There was a medium containing 1‰ DMSO in the negative control well. The treated cells were incubated at 37° C. with 5% CO2 and 95% humidity, wherein MV-4-11 were incubated for 24 h and NCI-H929 for 72 h. After incubation was completed, each well was added with 10 μL of CCK-8 reagent, incubated for 1-3 h at room temperature and placed in the microplate reader, and the absorbance was read at 450 nm.
The inhibition rate was calculated according to the following formula: […]
ODcmpd: compound absorbance; ODpositive: average value of the absorbance of positive control without compound; ODvehicle: average value of the absorbance of solvent vehicle control.
IC50 values were fitted using GraphPad 7.0 based on inhibition rates of compounds at different concentrations.

[6] = target: CDK1/CycE1 (Homo sapiens, UniProt P06493); test: ADP-Glo kinase assay on CDK enzymatic activity, CDK1/CycE1; assay type: biochemical; conditions: ADP-Glo; 10 concentrations from 10 μM, 4-fold; 60 min room temperature; read-out: CDK1/CycE1/nM (IC50)
Sequence of CDK1/CycE1 (P06493 whole entry, species assumed): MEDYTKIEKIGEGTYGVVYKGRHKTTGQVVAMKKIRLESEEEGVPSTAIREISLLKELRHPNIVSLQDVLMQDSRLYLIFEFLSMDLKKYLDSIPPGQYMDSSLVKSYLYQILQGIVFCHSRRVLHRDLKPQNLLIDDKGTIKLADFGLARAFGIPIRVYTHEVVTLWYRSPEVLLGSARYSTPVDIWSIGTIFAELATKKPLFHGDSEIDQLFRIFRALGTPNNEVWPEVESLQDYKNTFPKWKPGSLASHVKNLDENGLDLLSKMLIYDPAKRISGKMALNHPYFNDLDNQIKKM
Sequence of CDK1/CycE1 (P24864 whole entry partner, species assumed): as the sequence (P24864 whole entry partner, species assumed) above
Summary of the method: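 Compounds in 10-point 4-fold dilutions from 10 μM final, preincubated 10 min with kinase, then substrate/ATP added; 60 min reaction at room temperature. ADP-Glo luminescence read.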

In the case of `CC(C)Nc1nc(C#N)cc2cnc(N[C@H]3CC[C@H](N)C3)cc12` [Compound 28, 7-(((1S,3S)-3-aminocyclopentyl)amino)-1-(isopropylamino)-2,6-naphthyridine-3-carbonitrile], the IC50 [1] was 50 nM, the IC50 [2] was 96 nM and the IC50 [3] was 3 nM. It also gave an IC50 [4] of 97 nM, an IC50 [5] of 25 nM and an IC50 [6] of 220 nM.
`CC(C)Nc1nc(C#N)cc2cnc(N[C@H]3CC[C@H](N)C3)nc12` [Compound 45, 2-(((1S,3S)-3-aminocyclopentyl)amino)-8-(isopropylamino)pyrido[3,4-d]pyrimidine-6-carbonitrile] was tested, and the IC50 [1] was 47 nM, the IC50 [2] was 153 nM and the IC50 [3] was 2 nM. For the same compound, the IC50 [4] was 85 nM, the IC50 [5] was 22 nM and the IC50 [6] was 114 nM.
`CC(C)Nc1nc(C(F)F)cc2cnc(N[C@H]3CC[C@H](N)C3)cc12` [Compound 52, N^7-((1S,3S)-3-aminocyclopentyl)-3-(difluoromethyl)-N^1-isopropyl-2,6-naphthyridine-1,7-diamine] showed an IC50 [1] of 12 nM, an IC50 [2] of 16 nM and an IC50 [3] of 1 nM. The IC50 [4] was 23 nM and the IC50 [5] was 9 nM.
In the case of `CC(C)Nc1nc(C#N)cc2cnc(N[C@H]3CCCNC3)nc12` [Compound 55, (S)-8-(isopropylamino)-2-(piperidin-3-ylamino)pyrido[3,4-d]pyrimidine-6-carbonitrile], the IC50 [1] was 60 nM, the IC50 [2] was 56 nM and the IC50 [3] was 1 nM. It also gave an IC50 [4] of 24 nM, an IC50 [5] of 26.1 nM and an IC50 [6] of 43 nM.
